Data on three molecules can be found in patent US20260345621A1, “GABAA RECEPTOR MODULATORS AND USES THEREOF” (Engrail Therapeutics, Inc., priority 2022, published 2026).

Series [1] relates to anxiety (elevated plus maze). Briefly: Elevated plus maze (EPM). To be noted: oral.
In the next series the test system is sleep stages. Briefly: Sleep-stage analysis in wirelessly implanted rats. To be noted: Lorazepam 1 mg/kg IP.
Another series concerns EEG spectral bands. Briefly: Pharmaco-EEG spectral analysis in wirelessly implanted rats.
For series [2] the following is noted: phase II trial terminated; long term dosing studies; cited from earlier work.
The mark [3] stands for this setting: Frontal-Parietal cortex, Quiet Wake.

“Also recorded” adds a separate entry of the source.

For chlordiazepoxide [reference compound], the “effect compared with reference anxiolytic chlordiazepoxide” value in series [1] is recorded as “equivalent”.
Regarding `O=C1Nc2ccc(Cl)cc2C(c2ccccc2Cl)=NC1O` (centres unmarked) [Lorazepam, reference compound], the NREM onset entry with sleep stages (Compound 1 1 mg/kg PO) is on record as “decreased the latency to NREM onset; also recorded: quicker time to Non-REM onset sleep than Compound 1”. Further, the “Active Wake” value with sleep stages (Compound 1 PO) is listed as “decreased Active Wake”. In addition, the NREM entry with sleep stages (Compound 1 PO) was “increased NREM”. The “EEG spectral power change” value was “increased beta, low and high gamma” in the series on EEG spectral bands (Frontal-Frontal cortex, Active and Quiet Wake); “decreased theta, alpha, and beta, but increased low gamma” in the series with EEG spectral bands (Frontal-Frontal cortex, NREM); “increased beta” with EEG spectral bands (Frontal-Frontal cortex, REM); “decreased theta, increased beta and low and high gamma” in the series on EEG spectral bands (setting [3]); “increased theta, alpha, beta, and low gamma” in the series with EEG spectral bands (Frontal-Parietal cortex, REM); “increased low & high gamma, decreased delta” in the series with EEG spectral bands (summary, Quiet Wake). Further, the “duration of EEG effects” value in the series with EEG spectral bands (Frontal-Frontal cortex, NREM, Compound 1 high dose PO, Lorazepam 1 mg/kg IP) was 9 h; in the series with EEG spectral bands (setting [3]), “did not last past four hours post dose”. For the same molecule, the “duration of increase in low and high gamma” value with EEG spectral bands (Frontal-Parietal cortex, NREM) is recorded as “only lasting to two hours post dose”.
With `CCn1ncnc1COc1nn2c(-c3ccccc3F)nnc2cc1C(C)(C)C` [7-(1,1-dimethylethyl)-6-(2-ethyl-2H-1,2,4-triazol-3-ylmethoxy)-3-(2-fluorophenyl)-1,2,4-triazolo[4,3-b]pyridazine], the toxicity result in series [2] is “terminated due to toxicity in long term dosing studies”.
